Data published in PMC9378504 (Journal of medicinal chemistry, 2022).

Columns and labels:
NSD2 [1] = molecular target: T1, NSD2 (Homo sapiens, UniProt O96028); experiment: Western blotting of NSD2 protein level in H929 cells; type: cell-based; conditions: 2.5 μM, 72 h
T1 sequence (O96028 1-1365): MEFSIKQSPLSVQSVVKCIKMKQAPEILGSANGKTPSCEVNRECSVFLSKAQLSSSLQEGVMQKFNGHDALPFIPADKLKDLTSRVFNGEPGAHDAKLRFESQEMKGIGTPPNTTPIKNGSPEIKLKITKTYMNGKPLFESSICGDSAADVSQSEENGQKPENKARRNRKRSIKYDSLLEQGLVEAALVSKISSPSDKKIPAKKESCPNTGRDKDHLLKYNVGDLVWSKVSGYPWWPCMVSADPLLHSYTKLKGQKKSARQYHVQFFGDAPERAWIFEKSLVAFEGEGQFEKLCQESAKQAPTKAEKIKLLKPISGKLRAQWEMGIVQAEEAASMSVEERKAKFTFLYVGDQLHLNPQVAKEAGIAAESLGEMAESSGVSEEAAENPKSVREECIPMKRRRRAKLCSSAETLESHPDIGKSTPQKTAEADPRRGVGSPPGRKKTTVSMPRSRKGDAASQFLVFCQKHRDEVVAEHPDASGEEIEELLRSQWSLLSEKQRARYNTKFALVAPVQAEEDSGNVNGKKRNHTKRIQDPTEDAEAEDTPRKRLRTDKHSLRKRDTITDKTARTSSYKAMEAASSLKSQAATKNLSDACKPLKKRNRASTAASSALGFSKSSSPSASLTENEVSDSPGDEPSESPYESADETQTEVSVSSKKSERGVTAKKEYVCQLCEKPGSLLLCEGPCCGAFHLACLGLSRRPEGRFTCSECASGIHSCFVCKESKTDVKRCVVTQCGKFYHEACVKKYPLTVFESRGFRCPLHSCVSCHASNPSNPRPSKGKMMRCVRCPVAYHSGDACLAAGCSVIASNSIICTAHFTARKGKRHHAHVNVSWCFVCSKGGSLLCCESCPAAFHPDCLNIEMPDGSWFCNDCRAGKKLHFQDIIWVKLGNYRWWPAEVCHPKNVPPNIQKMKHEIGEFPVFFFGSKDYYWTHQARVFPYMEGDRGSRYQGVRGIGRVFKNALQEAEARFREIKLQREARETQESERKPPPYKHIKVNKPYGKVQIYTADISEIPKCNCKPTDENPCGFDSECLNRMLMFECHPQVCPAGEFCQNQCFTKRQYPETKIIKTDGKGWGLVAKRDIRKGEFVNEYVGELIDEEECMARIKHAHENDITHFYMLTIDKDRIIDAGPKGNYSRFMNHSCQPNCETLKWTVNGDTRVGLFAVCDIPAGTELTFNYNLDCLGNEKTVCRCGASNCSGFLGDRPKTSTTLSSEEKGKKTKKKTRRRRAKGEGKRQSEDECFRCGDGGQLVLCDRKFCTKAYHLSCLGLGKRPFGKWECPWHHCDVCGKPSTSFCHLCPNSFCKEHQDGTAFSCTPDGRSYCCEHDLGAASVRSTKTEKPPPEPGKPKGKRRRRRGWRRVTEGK

Mouse PK study = type: in vivo; conditions: single IP 50 mg/kg, male Swiss albino mice
KMS11 cells = experiment: Cell growth inhibition assay in KMS11 cells; type: cell-based, Human; conditions: 2.5 μM, 8 days
NSD2 [2] = molecular target: T1, NSD2; experiment: Western blotting of NSD2 protein level in 293FT cells; type: cell-based
NSD2 [3] = molecular target: T1, NSD2; experiment: Western blotting of NSD2 protein level in KMS11 cells; type: cell-based; conditions: 2.5 μM, 72 h
H929 cells = experiment: Cell growth inhibition assay in H929 cells; type: cell-based, Human; conditions: 2.5 μM, 8 days
IKZF3 [4] = molecular target: T2, IKZF3 (Homo sapiens, UniProt Q96SW2+Q9UKT9); experiment: Western blotting of IKZF3 protein level in 293FT cells; type: cell-based; conditions: for IKZF3 protein level after pretreatment: 293FT cells, then 5 μM for 6 h
T2 sequence (Q9UKT9 whole entry): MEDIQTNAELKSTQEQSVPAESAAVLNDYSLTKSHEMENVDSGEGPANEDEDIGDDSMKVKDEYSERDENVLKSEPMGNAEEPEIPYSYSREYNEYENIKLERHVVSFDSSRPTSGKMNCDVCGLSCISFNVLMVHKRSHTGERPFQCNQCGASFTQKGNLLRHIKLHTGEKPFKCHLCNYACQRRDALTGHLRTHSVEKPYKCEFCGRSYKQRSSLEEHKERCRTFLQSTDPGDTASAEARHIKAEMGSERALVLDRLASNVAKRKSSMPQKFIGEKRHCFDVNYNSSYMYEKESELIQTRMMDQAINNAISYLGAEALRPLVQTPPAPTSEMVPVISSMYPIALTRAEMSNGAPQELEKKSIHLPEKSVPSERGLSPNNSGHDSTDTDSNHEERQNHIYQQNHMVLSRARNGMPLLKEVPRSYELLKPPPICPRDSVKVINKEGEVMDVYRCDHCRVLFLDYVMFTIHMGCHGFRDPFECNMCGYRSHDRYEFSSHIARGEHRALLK
T2 sequence (Q96SW2 whole entry): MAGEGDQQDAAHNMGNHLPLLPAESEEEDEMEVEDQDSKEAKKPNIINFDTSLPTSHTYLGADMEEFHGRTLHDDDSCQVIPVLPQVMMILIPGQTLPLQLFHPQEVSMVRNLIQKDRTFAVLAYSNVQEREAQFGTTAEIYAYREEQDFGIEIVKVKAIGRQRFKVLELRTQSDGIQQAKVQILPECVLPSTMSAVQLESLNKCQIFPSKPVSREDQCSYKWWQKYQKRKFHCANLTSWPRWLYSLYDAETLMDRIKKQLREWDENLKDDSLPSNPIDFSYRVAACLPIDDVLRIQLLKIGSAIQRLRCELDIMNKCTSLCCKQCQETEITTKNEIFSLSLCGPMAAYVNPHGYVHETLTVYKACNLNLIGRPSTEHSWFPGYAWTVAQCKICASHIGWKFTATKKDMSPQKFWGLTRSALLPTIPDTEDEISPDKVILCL
T2 sequence (Q16531 whole entry partner): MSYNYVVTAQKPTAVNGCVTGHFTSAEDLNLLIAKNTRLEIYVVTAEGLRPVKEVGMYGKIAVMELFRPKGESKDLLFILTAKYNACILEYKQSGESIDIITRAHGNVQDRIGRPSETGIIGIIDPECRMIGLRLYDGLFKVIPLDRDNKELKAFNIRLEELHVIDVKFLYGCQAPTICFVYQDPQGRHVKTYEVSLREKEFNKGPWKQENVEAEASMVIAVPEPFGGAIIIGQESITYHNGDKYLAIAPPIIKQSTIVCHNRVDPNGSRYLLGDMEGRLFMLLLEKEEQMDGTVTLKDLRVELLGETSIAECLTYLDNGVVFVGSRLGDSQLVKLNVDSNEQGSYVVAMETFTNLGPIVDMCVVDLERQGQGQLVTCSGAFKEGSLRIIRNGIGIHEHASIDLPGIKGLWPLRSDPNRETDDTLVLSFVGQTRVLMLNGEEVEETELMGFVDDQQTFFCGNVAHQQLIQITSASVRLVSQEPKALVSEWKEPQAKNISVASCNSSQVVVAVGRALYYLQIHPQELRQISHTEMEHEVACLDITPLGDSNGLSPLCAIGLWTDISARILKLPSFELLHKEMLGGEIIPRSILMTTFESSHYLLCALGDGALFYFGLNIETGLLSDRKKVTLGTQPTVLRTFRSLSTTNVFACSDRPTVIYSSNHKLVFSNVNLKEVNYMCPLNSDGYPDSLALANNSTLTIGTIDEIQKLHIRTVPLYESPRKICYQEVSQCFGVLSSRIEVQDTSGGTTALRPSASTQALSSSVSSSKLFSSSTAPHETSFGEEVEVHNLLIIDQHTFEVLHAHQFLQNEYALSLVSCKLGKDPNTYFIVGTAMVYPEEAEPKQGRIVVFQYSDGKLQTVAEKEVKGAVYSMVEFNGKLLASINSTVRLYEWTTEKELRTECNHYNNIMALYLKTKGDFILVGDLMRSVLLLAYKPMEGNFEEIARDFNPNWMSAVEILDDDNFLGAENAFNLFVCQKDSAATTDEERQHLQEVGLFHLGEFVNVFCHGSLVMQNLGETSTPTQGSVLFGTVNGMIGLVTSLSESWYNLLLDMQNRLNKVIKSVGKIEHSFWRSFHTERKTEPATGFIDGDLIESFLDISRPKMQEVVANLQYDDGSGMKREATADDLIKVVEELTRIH

IKZF3 [5] = molecular target: T2, IKZF3; experiment: Western blotting of IKZF3 protein level in KMS11 cells; type: cell-based; conditions: then 5 μM for 6 h
GSPT1 [6] = experiment: Western blotting of GSPT1 protein level in H929 cells; type: cell-based, Human; conditions: 2.5 μM, 72 h
IKZF1 [7] = molecular target: T3, IKZF1 (Homo sapiens, UniProt Q13422+Q96SW2); experiment: Western blotting of IKZF1 protein level in H929 cells; type: cell-based; conditions: 2.5 μM, 72 h
T3 sequence (Q13422 whole entry): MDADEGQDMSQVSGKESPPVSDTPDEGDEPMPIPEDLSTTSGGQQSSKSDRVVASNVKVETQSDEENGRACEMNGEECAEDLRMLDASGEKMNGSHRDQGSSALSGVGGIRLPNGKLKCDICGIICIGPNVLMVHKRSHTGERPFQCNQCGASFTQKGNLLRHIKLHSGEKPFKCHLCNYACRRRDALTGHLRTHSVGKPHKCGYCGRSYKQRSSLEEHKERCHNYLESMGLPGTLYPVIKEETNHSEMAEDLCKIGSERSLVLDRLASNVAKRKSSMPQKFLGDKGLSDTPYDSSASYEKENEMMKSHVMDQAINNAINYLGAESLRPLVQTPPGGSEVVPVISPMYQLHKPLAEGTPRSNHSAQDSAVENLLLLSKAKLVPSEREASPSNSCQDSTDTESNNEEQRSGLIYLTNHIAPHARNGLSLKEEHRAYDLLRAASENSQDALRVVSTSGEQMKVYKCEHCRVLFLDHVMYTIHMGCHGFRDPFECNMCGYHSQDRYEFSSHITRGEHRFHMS
T3 sequence (Q96SW2 whole entry): as the sequence (Q96SW2 whole entry) above
T3 sequence (Q16531 whole entry partner): as the sequence (Q16531 whole entry partner) above

GSPT1 [8] = experiment: Western blotting of GSPT1 protein level in KMS11 cells; type: cell-based, Human; conditions: 2.5 μM, 72 h
IKZF1 [9] = molecular target: T3, IKZF1; experiment: Western blotting of IKZF1 protein level in KMS11 cells; type: cell-based; conditions: for IKZF1 degradation after pretreatment: then 5 μM for 6 h
NSD2 [10] = molecular target: T1, NSD2; experiment: Western blotting of NSD2 protein level in CRBN KO 293FT cells; type: cell-based; conditions: 293FT cells with CRISPR-Cas9-mediated KO of CRBN, range of concentrations, 48 h
[11] = system: 20 protein lysine and arginine methyltransferases including NSD1/2/3; experiment: Selectivity assay, radioisotope-based filter binding; type: biochemical, human; conditions: 10 μM, in duplicate, SAM 1 μM
IKZF3 [12] = molecular target: T2, IKZF3; experiment: Western blotting of IKZF3 protein level in CRBN KO 293FT cells; type: cell-based; conditions: 293FT cells with CRISPR-Cas9-mediated KO of CRBN, range of concentrations, 48 h
[13] = WT 293FT cells, range of concentrations, 48 h
[14] = pretreated with 10 nM MLN9708 for 2 h
[15] = pretreated with 0.5 μM MLN4924 for 2 h

- NSD2 degradation (NSD2 [1]): effectively degraded NSD2
- clinical signs (Mouse PK study; PK study): no clinical signs were observed
- maximum plasma concentration (Mouse PK study; mean ± SD from three mice): 1.35 ± 0.08 µM
- NSD2 protein level on cotreatment (NSD2 [2]; 293FT cells, 5 μM for 48 h, cotreated with 5 μM UNC6934 during the last 6 h): significantly rescued
- NSD2 degradation, time course (NSD2 [2]; 293FT cells, 5 μM, 36 h): some NSD2 degradation
- NSD2 degradation, time course (NSD2 [2]; 293FT cells, 5 μM, 48 h): significant degradation
- NSD2 degradation, time course (NSD2 [2]; 293FT cells, 5 μM, 72 h): maximum degradation effect
- NSD2 protein level after washout (NSD2 [2]; 293FT cells, 5 μM, then washout, 48 h post washout): fully recovered
- NSD2 degradation (NSD2 [3]): effectively degraded NSD2
- IKZF1 protein level (IKZF1 [7]): clearly reduced the IKZF1 protein level
- IKZF1 protein level (IKZF1 [9]; 2.5 μM, 72 h): clearly reduced the IKZF1 protein level
Structure (SMILES): O=C(CNc1cccc2c1C(=O)N(C1CCC(=O)NC1=O)C2=O)NCCCOc1ccc(NC(=O)c2ccc(CN(C(=O)c3ccc4c(c3)OCC(=O)N4)C3CC3)cc2)nc1 (stereo not shown) [Compound 9, N-Cyclopropyl-N-(4-((5-(3-(2-((2-(2,6-dioxopiperidin-3-yl)-1,3-dioxoisoindolin-4-yl)amino)acetamido)propoxy)pyridin-2-yl)-carbamoyl)benzyl)-3-oxo-3,4-dihydro-2H-benzo[b][1,4]oxazine-7-carboxamide]
- tolerability (Mouse PK study; PK study): well tolerated
- Cell growth inhibition (KMS11 cells): effectively inhibited the growth
- NSD2 protein level (NSD2 [2]; 293FT cells, 2.5 and 10 μM, 48 h, Figure 2): effectively induced degradation of NSD2 at both 2.5 and 10 μM without a hook effect
- NSD2 degradation (NSD2 [2]; [13]): clear degradation of NSD2 and IKZF3 was observed
- Cell growth inhibition (H929 cells): effectively inhibited the growth
- IKZF3 protein level after pretreatment (IKZF3 [4]; [14]): successfully restored the IKZF3 protein level
- IKZF3 protein level after pretreatment (IKZF3 [4]; [15]): successfully restored the IKZF3 protein level
- IKZF3 degradation (IKZF3 [4]; [13]): clear degradation of NSD2 and IKZF3 was observed
- IKZF3 degradation after pretreatment (IKZF3 [5]; [14]): at least partially rescued the IKZF1 and IKZF3 degradation
- IKZF3 degradation after pretreatment (IKZF3 [5]; [15]): at least partially rescued the IKZF1 and IKZF3 degradation
- GSPT1 degradation (GSPT1 [6]): did not degrade GSPT1
- GSPT1 degradation (GSPT1 [8]): did not degrade GSPT1
- IKZF1 degradation after pretreatment (IKZF1 [9]; [14]): at least partially rescued the IKZF1 and IKZF3 degradation
- IKZF1 degradation after pretreatment (IKZF1 [9]; [15]): at least partially rescued the IKZF1 and IKZF3 degradation
- NSD2 degradation (NSD2 [10]): no NSD2 or IKZF3 degradation was detected
- Inhibition of 20 methyltransferases (selectivity) [11]: did not inhibit any of the 20 methyltransferases
- IKZF3 degradation (IKZF3 [12]): no NSD2 or IKZF3 degradation was detected
